Experimental data from patent US10968227B2, “Isoquinoline ether compounds as mGluR4 allosteric potentiators, compositions, and methods of treating neurological dysfunction” (Vanderbilt University, priority 2016, dated 2021).
Values after ≈ are worked out from the molar mass of the structure shown.

Legend:
1A2 = 1A2 (Homo sapiens (Human), UniProt P05177); assay: CYP 1A2 inhibition; format: in vitro ADME
[1] = Human intrinsic and hepatic clearance; format: in vitro ADME
2D6 = 2D6 (Homo sapiens (Human), UniProt P10635); assay: CYP 2D6 inhibition; format: in vitro ADME
Sequence of 2D6 (P10635 whole entry): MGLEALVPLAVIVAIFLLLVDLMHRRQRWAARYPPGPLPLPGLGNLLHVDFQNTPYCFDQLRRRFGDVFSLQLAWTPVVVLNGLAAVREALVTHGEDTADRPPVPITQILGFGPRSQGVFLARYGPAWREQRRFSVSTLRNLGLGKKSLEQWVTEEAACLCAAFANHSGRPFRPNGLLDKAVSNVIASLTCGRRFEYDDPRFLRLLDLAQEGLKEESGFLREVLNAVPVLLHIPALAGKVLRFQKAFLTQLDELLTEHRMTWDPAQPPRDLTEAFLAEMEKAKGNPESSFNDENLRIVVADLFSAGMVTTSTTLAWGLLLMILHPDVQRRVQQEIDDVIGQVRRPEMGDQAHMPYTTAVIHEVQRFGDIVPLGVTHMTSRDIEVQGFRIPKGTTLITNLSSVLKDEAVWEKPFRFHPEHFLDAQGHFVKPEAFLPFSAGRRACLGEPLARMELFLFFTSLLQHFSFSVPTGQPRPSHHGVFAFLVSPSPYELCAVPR

3A4 = 3A4 (Homo sapiens (Human), UniProt P08684); assay: CYP 3A4 inhibition; format: in vitro ADME
Sequence of 3A4 (P08684 whole entry): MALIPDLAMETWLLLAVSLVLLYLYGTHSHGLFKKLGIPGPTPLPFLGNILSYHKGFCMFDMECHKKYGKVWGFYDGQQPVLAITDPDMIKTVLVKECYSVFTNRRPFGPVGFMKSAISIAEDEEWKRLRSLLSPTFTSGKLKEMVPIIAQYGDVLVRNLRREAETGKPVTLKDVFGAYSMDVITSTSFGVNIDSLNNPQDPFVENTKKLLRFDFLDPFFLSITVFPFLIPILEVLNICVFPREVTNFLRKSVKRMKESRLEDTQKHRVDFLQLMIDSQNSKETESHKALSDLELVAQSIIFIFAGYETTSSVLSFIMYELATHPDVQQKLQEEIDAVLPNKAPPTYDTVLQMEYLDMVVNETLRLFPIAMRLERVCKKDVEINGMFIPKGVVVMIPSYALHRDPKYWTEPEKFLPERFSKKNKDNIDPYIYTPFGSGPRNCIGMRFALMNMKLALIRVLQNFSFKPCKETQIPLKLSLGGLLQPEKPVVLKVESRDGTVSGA

[2] = Rat brain fraction unbound; format: in vitro ADME; conditions: read-out: Rat Fu Brain
Brain-plasma partition = format: in vivo; conditions: rat; for unbound brain-to-plasma partition coefficient (Kp,uu): unbound brain-plasma ratio, read-out: Brain-Plasma Kp,ω
[3] = Human plasma fraction unbound; format: in vitro ADME; conditions: read-out: Human Fu Plasma
2C9 = 2C9 (Homo sapiens (Human), UniProt P11712); assay: CYP 2C9 inhibition; format: in vitro ADME
Sequence of 2C9 (P11712 whole entry): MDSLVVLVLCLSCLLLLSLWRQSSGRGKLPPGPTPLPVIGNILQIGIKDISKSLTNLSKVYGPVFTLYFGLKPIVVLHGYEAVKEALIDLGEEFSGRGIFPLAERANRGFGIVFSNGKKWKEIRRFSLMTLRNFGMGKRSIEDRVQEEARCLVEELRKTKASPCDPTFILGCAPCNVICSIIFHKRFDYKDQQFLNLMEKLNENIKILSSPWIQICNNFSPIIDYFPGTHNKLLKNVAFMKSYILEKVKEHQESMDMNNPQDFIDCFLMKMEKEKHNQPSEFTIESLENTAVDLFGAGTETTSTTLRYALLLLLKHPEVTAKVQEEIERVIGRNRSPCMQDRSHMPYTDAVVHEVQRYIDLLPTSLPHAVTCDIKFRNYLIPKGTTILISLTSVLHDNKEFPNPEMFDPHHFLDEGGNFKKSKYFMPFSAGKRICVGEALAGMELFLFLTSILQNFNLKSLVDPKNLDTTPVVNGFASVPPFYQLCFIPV

[4] = Rat plasma fraction unbound; format: in vitro ADME; conditions: read-out: Rat Fu Plasma
[5] = Rat intrinsic and hepatic clearance; format: in vitro ADME
Kinetic solubility = format: physicochemical; conditions: kinetic from dmso stock
Rat in vivo clearance = conditions: read-out: Rat in Vivo CL

Sequence of 1A2 (P05177 whole entry): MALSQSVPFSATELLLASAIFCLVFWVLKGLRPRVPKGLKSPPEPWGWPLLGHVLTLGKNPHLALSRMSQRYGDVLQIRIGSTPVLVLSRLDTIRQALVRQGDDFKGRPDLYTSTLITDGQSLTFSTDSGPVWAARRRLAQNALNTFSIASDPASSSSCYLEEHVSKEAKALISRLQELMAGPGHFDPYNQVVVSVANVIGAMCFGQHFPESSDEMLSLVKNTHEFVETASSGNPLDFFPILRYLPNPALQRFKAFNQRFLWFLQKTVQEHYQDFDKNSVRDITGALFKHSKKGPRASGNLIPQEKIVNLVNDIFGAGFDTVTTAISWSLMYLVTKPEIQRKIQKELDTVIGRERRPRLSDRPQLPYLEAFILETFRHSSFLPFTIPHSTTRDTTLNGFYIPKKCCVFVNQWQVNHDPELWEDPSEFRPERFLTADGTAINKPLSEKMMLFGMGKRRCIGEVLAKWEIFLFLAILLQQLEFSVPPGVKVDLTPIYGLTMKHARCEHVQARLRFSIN

| Structure (SMILES) | IC50 (1A2) | CLint scaled [1] | Human CLhep [1] | IC50 (2D6) | IC50 (3A4) | fraction unbound [2] | Kp (Brain-plasma partition) | unbound brain-to-plasma partition coefficient (Kp,uu) (Brain-plasma partition) | fraction unbound [3] | IC50 (2C9) | fraction unbound [4] | CLint scaled [5] | Rat CLhep [5] | solubility kinetic (Kinetic solubility) | clearance (Rat in vivo clearance) |
| --- | --- | --- | --- | --- | --- | --- | --- | --- | --- | --- | --- | --- | --- | --- | --- |
| c1cnc2[nH]nc(Nc3ccc4c(OCC5COCCO5)nccc4c3)c2c1 (stereo not drawn) [Compound 80] | > 30 µM | 22.4 mL/min/kg | 10.8 mL/min/kg | > 30 µM | > 30 µM | 0.007 | 0.46 | 0.09 | 0.033 | 26.9 µM | 0.037 | 376 mL/min/kg | 59.0 mL/min/kg | 1.4 ± 0.1 µM (≈ 0.528 µg/mL) | – |
| COCCOc1nccc2cc(Nc3n[nH]c4cccnc34)ccc12 [Compound 67] | 4.76 µM | 35.2 mL/min/kg | 13.2 mL/min/kg | > 30 µM | 9.45 µM | 0.007 | 1.11 | 0.2 | 0.024 | 22 µM | 0.039 | 113 mL/min/kg | 43.2 mL/min/kg | 5.5 ± 0.5 µM (≈ 1.84 µg/mL) | 82.2 mL/min/kg |
| C[C@H]1C[C@H](Oc2nccc3cc(Nc4n[nH]c5ncccc45)ccc23)CO1 [Compound 88] | 17 µM | 18.1 mL/min/kg | 9.71 mL/min/kg | > 30 µM | > 30 µM | 0.003 | 2.22 | 0.21 | 0.01 | > 30 µM | 0.032 | 79.9 mL/min/kg | 37.3 mL/min/kg | 0.5 ± 0.2 µM (≈ 0.181 µg/mL) | 43.3 mL/min/kg |
| c1cnc2[nH]nc(Nc3ccc4c(OCC5CCOC5)nccc4c3)c2c1 (stereo not drawn) [Compound 79] | – | – | – | – | – | 0.002 | 1.5 | 0.16 | 0.018 | – | 0.019 | – | – | < 0.4 µM | – |
| COCCOc1nccc2cc(Nc3n[nH]c4ncccc34)ccc12 [Compound 74] | > 30 µM | 32.3 mL/min/kg | 12.7 mL/min/kg | > 30 µM | > 30 µM | 0.007 | 0.59 | 0.1 | 0.038 | > 30 µM | 0.041 | 252 mL/min/kg | 54.8 mL/min/kg | 0.8 ± 0.3 µM (≈ 0.268 µg/mL) | – |
| CCOCCOc1nccc2cc(Nc3n[nH]c4cccnc34)ccc12 [Compound 69] | – | – | – | – | – | 0.005 | 1.23 | 0.27 | 0.017 | – | 0.023 | – | – | 9.9 ± 2.7 µM (≈ 3.46 µg/mL) | – |
| c1cc2cc(Nc3n[nH]c4nccnc34)ccc2c(O[C@@H]2CCOC2)n1 [Compound 58] | > 30 µM | 32.4 mL/min/kg | 12.7 mL/min/kg | > 30 µM | > 30 µM | 0.014 | 1.29 | 0.33 | 0.032 | > 30 µM | 0.055 | 122 mL/min/kg | 44.4 mL/min/kg | – | 116 mL/min/kg |
| COCCOc1nccc2cc(Nc3n[nH]c4ncc(F)cc34)ccc12 [Compound 96] | – | 37 mL/min/kg | 13.4 mL/min/kg | – | – | – | – | – | – | – | – | 327 mL/min/kg | 57.7 mL/min/kg | 0.3 ± 0.2 µM (≈ 0.106 µg/mL) | – |
| COCCOc1nccc2cc(Nc3n[nH]c4nccnc34)ccc12 [Compound 81] | 0.79 µM | 38.5 mL/min/kg | 13.6 mL/min/kg | > 30 µM | > 30 µM | 0.015 | 0.4 | 0.13 | 0.032 | > 30 µM | 0.048 | 74.4 mL/min/kg | 36.1 mL/min/kg | 0.9 ± 0.2 µM (≈ 0.303 µg/mL) | – |
| c1cnc2c(Nc3ccc4c(OCCN5CCOCC5)nccc4c3)n[nH]c2c1 [Compound 93] | – | 136 mL/min/kg | 18.2 mL/min/kg | – | – | – | – | – | – | – | – | 718 mL/min/kg | 63.8 mL/min/kg | 20.5 ± 2.1 µM (≈ 8 µg/mL) | – |
| c1cc2cc(Nc3n[nH]c4nccnc34)ccc2c(OCC2CCOCC2)n1 [Compound 82] | – | 67.6 mL/min/kg | 15.4 mL/min/kg | – | – | 0.004 | 0.47 | 0.09 | 0.02 | – | 0.02 | 154 mL/min/kg | 48.1 mL/min/kg | 0.5 ± 0.2 µM (≈ 0.188 µg/mL) | – |
| C[C@H]1OCC[C@H]1Oc1nccc2cc(Nc3n[nH]c4ncccc34)ccc12 [Compound 92] | – | 129 mL/min/kg | 18.1 mL/min/kg | – | – | – | – | – | – | – | – | 518 mL/min/kg | 61.7 mL/min/kg | 0.9 ± 0.2 µM (≈ 0.325 µg/mL) | – |
| c1cc2cc(Nc3n[nH]c4nccnc34)ccc2c(OCC2COCCO2)n1 (stereo not drawn) [Compound 86] | > 30 µM | 19 mL/min/kg | 10.0 mL/min/kg | > 30 µM | > 30 µM | 0.018 | 0.35 | 0.11 | 0.063 | > 30 µM | 0.057 | 58.1 mL/min/kg | 31.7 mL/min/kg | 0.6 ± 0.2 µM (≈ 0.227 µg/mL) | – |

The remaining lines, values ahead:

| IC50 (1A2) | CLint scaled [1] | Human CLhep [1] | IC50 (2D6) | IC50 (3A4) | fraction unbound [2] | Kp (Brain-plasma partition) | unbound brain-to-plasma partition coefficient (Kp,uu) (Brain-plasma partition) | fraction unbound [3] | IC50 (2C9) | fraction unbound [4] | CLint scaled [5] | Rat CLhep [5] | solubility kinetic (Kinetic solubility) | clearance (Rat in vivo clearance) | Structure (SMILES) |
| --- | --- | --- | --- | --- | --- | --- | --- | --- | --- | --- | --- | --- | --- | --- | --- |
| > 30 µM | 37.9 mL/min/kg | 13.5 mL/min/kg | > 30 µM | > 30 µM | 0.006 | 0.87 | 0.11 | 0.019 | > 30 µM | 0.047 | 210 mL/min/kg | 52.5 mL/min/kg | – | – | c1cnc2[nH]nc(Nc3ccc4c(O[C@H]5CCOC5)nccc4c3)c2c1 [Compound 66] |
| 5.86 µM | 44 mL/min/kg | 14.2 mL/min/kg | 19.7 µM | 4.29 µM | 0.005 | 1.83 | 0.23 | 0.028 | 6.04 µM | 0.04 | 333 mL/min/kg | 57.8 mL/min/kg | – | 61 mL/min/kg | c1cnc2c(Nc3ccc4c(O[C@H]5CCCOC5)nccc4c3)n[nH]c2c1 [Compound 61] |
| 5.68 µM | 16.1 mL/min/kg | 8.79 mL/min/kg | 23.5 µM | 12.3 µM | 0.008 | 1.44 | 0.39 | 0.02 | 3.9 µM | 0.03 | 94.1 mL/min/kg | 40.1 mL/min/kg | – | 81.6 mL/min/kg | c1cnc2c(Nc3ccc4c(OC5CCOCC5)nccc4c3)n[nH]c2c1 [Compound 60] |
| 8.48 µM | 41.1 mL/min/kg | 13.9 mL/min/kg | 19.7 µM | 15.4 µM | 0.003 | 0.8 | 0.1 | 0.015 | 4.59 µM | 0.024 | 151 mL/min/kg | 47.8 mL/min/kg | – | – | c1cnc2c(Nc3ccc4c(OCC5CCOC5)nccc4c3)n[nH]c2c1 (stereo not drawn) [Compound 71] |
| 12.9 µM | 55.7 mL/min/kg | 15.2 mL/min/kg | 24.6 µM | 22.7 µM | 0.002 | 0.52 | 0.13 | 0.009 | 3.15 µM | 0.008 | 273 mL/min/kg | 55.7 mL/min/kg | – | – | c1cnc2c(Nc3ccc4c(OCC5CCCOC5)nccc4c3)n[nH]c2c1 (stereo not drawn) [Compound 72] |
| 15.8 µM | 16 mL/min/kg | 9.07 mL/min/kg | > 30 µM | > 30 µM | – | – | – | – | 1.85 µM | – | 61 mL/min/kg | 32.6 mL/min/kg | 0.7 ± 0.4 µM (≈ 0.253 µg/mL) | 39.1 mL/min/kg | C[C@H]1C[C@H](Oc2nccc3cc(Nc4n[nH]c5cccnc45)ccc23)CO1 [Compound 87] |
| – | 40.3 mL/min/kg | 13.6 mL/min/kg | – | – | – | – | – | – | – | – | 127 mL/min/kg | 45.1 mL/min/kg | 0.4 µM (≈ 0.146 µg/mL) | – | Fc1cnc2c(Nc3ccc4c(O[C@H]5CCOC5)nccc4c3)n[nH]c2c1 [Compound 95] |
| 6.32 µM | 58.3 mL/min/kg | 15.4 mL/min/kg | 27.8 µM | 4.76 µM | 0.004 | 3.38 | 0.36 | 0.017 | 3.96 µM | 0.038 | 461 mL/min/kg | 60.8 mL/min/kg | 10.3 ± 1.1 µM (≈ 3.72 µg/mL) | – | c1cnc2c(Nc3ccc4c(O[C@@H]5CCCOC5)nccc4c3)n[nH]c2c1 [Compound 62] |
| 3.96 µM | 57.8 mL/min/kg | 15.4 mL/min/kg | > 30 µM | 22.3 µM | 0.005 | 1.27 | 0.18 | 0.018 | 13.3 µM | 0.036 | 181 mL/min/kg | 50.5 mL/min/kg | – | – | c1cnc2c(Nc3ccc4c(O[C@@H]5CCOC5)nccc4c3)n[nH]c2c1 [Compound 63] |
